What all share (assay type): cell-based
One test addresses T1, JAK1 (Homo sapiens, UniProt P23458).
T1 construct: endogenous in cells; host or cells: Jurkat cells
Briefly: Degradation-inducing effect on JAK in Jurkat cells (chemiluminescent Western blotting), JAK1. The settings on record: 1 μmol/L, 6 hours; for JAK protein ratio of Jurkat cells after treatment of each test compound: JAK1: corrected by GAPDH, DMSO as 100%. The method, then: (§1) The degradation-inducing effect of the compound of the present invention on JAK family proteins was evaluated in vitro using Jurkat cells, of which cell line was derived from human leukemic T cells.
(§2) JAK1, JAK2, JAK3, and Tyk2-positive Jurkat cells were seeded at a density of 1×10^5 cells/mL on 10 cm diameter dishes and then cultured in RPMI 1640 medium (FUJIFILM Wako Pure Chemical: catalog number: 189-02025) containing 10% FBS (Thermo Fisher Scientific: catalog number: 10437-028) at 5% CO2 and 37° C. for 3 days. Then, each of the test compounds (compounds of Examples 1 to 11 and Comparative Examples 1 and 2) was added to the dish at a final concentration of 1 μmol/L, and the cells were cultured in the presence of the test compound for 6 hours. After that, the cell culture medium was collected in a 15 mL centrifuge tube (1000 rpm (240× g), room temperature, 5 min), followed by washing with PBS (1000 rpm (240× g), room temperature, 5 min). Then, the cells in the centrifuge tube were collected in a 1.5 mL tube (3000 rpm (860× g), 4° C., 5 min), lysed using RIPA buffer (25 mmol/L Tris-HCl (pH 7.4), 25 mmol/L NaCl, 0.5 mmol/L EGTA (pH 8.0), 0.1% SDS, 1% protease inhibitor), sonicated at ice temperature (cycles of [7.5 sec sonication, 5 sec off] for 5 min) and subjected to centrifugation (15000 rpm (21600× g), 4° C., 30 min). The thus-obtained supernatant was used as the protein solution. Using the BCA protein assay kit (Thermo Fisher Scientific: catalog number: 23225), the protein concentration of the protein solution of each test compound was measured according to the kit instructions, and then adjusted to 1.4 mg/mL with RIPA buffer. The thus-adjusted protein solutions were subjected to a fully automated Western blotting device (Simple Westerns Wes: proteinSimple) to detect the protein levels (JAK1, JAK2, JAK3, and Tyk2 as the target proteins, and GAPDH (Glyceraldehyde 3-phosphate dehydrogenase) as the internal standard protein) in the protein solutions by chemiluminescent Western blotting.
(§3) Furthermore, the luminescence levels of JAK1, JAK2, JAK3, and Tyk2 detected by chemiluminescent Western blotting were quantified numerically by using an analysis software (Compass software for Simple Western (version 4.0.0)) attached to the fully automated Western blotting device. The numerical values of the quantified luminescence levels were corrected by the protein levels of the internal standard protein, i.e., GAPDH, (target protein levels/GAPDH protein levels), and compared among the test compounds with dimethyl sulfoxide (DMSO) as 100%.
(In general: Immunoblotting shows a protein as a band on a membrane.)

For a further test, the target named is T2, JAK2 (Homo sapiens, UniProt O60674).
T2 construct: endogenous in cells; host or cells: Jurkat cells
T2 sequence (O60674 whole entry): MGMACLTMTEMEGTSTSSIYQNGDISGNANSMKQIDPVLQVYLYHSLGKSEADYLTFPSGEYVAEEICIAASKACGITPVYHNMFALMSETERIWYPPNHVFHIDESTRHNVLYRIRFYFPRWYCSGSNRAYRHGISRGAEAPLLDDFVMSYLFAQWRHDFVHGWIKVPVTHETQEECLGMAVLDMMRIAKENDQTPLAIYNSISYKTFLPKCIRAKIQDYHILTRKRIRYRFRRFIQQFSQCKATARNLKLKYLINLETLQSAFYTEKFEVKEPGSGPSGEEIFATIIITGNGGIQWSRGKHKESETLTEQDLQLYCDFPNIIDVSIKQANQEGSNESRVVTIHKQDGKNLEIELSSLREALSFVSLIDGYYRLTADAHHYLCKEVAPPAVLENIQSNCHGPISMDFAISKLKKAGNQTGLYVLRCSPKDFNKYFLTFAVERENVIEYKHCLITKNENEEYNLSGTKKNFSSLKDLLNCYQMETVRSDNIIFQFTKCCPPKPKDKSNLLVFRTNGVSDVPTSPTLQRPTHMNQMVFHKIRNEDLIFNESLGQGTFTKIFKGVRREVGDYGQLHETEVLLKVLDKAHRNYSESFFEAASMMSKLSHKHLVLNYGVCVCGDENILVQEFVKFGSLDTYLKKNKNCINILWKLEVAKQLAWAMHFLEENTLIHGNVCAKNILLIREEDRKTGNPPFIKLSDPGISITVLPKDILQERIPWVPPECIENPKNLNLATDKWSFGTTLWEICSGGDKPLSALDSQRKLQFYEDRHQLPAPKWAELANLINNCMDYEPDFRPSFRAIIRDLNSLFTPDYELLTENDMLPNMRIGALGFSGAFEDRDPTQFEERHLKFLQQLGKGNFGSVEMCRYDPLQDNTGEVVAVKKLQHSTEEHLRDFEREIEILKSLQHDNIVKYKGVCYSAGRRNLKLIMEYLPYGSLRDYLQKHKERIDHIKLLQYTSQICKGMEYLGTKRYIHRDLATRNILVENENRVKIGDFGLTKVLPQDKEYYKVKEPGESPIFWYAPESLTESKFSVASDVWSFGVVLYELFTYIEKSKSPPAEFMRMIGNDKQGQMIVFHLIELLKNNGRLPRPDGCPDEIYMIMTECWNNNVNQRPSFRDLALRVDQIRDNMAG
Briefly: Degradation-inducing effect on JAK in Jurkat cells (chemiluminescent Western blotting), JAK2. The settings on record: 1 μmol/L, 6 hours, corrected by GAPDH, DMSO as 100%. The method, then:
as §1, §2, §3

Another test deals with T3, JAK3 (Homo sapiens, UniProt P52333).
T3 construct: endogenous in cells; host or cells: Jurkat cells
T3 sequence (P52333 1-1124): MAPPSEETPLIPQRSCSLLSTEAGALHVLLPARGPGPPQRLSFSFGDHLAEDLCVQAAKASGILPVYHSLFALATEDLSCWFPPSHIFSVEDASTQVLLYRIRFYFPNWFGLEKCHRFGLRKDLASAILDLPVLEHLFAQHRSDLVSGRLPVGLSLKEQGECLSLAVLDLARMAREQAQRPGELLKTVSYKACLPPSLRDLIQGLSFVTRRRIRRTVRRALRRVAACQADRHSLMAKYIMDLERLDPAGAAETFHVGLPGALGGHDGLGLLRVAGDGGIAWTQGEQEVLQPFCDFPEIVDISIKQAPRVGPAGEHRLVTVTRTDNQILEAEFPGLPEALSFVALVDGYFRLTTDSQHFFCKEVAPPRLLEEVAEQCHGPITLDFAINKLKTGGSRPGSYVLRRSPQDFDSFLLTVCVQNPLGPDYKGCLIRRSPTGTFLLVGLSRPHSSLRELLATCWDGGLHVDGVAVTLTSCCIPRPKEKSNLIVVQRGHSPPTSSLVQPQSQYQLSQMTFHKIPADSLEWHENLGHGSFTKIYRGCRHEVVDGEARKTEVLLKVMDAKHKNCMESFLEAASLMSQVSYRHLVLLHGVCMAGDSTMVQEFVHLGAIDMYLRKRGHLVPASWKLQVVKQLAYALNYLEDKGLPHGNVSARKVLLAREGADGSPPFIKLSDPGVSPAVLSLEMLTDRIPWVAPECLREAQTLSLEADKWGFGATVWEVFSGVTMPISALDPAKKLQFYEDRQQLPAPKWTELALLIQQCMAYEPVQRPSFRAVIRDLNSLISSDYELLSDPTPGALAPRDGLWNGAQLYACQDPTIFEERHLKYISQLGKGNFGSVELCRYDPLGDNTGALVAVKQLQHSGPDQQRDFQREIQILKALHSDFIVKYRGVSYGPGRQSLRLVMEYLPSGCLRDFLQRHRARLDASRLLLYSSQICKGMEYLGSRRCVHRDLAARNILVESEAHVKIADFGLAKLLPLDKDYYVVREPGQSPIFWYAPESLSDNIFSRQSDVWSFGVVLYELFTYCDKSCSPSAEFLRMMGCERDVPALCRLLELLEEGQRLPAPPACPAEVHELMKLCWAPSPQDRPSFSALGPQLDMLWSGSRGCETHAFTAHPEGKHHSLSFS
The test is described as follows: Degradation-inducing effect on JAK in Jurkat cells (chemiluminescent Western blotting), JAK3. The settings on record: 1 μmol/L, 6 hours, corrected by GAPDH, DMSO as 100%, read-out: JAK protein ratio of Jurkat cells after treatment of each test compound: JAK3. The method, then:
as §1, §2, §3

Another test has as its target T4, Tyk2 (Homo sapiens, UniProt P29597).
T4 construct: endogenous in cells; host or cells: Jurkat cells
Briefly: Degradation-inducing effect on JAK in Jurkat cells (chemiluminescent Western blotting), Tyk2. The settings on record: 1 μmol/L, 6 hours; for JAK protein ratio of Jurkat cells after treatment of each test compound: Tyk2: corrected by GAPDH, DMSO as 100%. The method, then: as §1, §2, §3

The values that follow come from patent publication US20240425456A1, “DEGRADER” (ASKA PHARMACEUTICAL CO., LTD., priority 2021, published 2024).

T1 sequence (P23458 whole entry): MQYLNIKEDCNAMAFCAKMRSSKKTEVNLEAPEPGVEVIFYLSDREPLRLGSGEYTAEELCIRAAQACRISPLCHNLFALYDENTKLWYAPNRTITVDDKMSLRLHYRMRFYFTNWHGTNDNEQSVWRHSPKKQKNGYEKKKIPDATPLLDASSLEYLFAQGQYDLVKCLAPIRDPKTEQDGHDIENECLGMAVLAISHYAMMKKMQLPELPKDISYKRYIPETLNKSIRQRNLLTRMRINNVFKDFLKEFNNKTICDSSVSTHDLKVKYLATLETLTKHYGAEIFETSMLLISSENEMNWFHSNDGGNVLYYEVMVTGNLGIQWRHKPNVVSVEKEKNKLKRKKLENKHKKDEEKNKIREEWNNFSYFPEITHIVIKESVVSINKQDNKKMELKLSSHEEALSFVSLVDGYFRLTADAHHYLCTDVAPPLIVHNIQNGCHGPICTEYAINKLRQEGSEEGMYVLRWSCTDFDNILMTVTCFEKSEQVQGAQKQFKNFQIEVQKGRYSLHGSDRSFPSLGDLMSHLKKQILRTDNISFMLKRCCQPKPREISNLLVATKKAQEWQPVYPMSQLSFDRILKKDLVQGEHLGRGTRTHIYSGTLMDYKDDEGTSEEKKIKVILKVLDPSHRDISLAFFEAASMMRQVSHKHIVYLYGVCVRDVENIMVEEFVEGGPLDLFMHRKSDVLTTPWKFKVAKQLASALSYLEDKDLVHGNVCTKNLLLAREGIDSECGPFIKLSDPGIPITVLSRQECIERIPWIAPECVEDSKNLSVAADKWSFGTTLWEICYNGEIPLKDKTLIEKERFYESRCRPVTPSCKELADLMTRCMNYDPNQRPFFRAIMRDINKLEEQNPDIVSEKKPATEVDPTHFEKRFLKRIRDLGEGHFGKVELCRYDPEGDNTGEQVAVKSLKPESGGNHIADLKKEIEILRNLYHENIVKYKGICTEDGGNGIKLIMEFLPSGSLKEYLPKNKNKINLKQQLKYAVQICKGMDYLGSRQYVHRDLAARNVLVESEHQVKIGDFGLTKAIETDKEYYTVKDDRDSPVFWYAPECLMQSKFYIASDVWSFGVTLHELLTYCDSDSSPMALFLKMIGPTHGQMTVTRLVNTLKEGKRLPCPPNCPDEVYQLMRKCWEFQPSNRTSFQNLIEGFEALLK
T4 sequence (P29597 whole entry): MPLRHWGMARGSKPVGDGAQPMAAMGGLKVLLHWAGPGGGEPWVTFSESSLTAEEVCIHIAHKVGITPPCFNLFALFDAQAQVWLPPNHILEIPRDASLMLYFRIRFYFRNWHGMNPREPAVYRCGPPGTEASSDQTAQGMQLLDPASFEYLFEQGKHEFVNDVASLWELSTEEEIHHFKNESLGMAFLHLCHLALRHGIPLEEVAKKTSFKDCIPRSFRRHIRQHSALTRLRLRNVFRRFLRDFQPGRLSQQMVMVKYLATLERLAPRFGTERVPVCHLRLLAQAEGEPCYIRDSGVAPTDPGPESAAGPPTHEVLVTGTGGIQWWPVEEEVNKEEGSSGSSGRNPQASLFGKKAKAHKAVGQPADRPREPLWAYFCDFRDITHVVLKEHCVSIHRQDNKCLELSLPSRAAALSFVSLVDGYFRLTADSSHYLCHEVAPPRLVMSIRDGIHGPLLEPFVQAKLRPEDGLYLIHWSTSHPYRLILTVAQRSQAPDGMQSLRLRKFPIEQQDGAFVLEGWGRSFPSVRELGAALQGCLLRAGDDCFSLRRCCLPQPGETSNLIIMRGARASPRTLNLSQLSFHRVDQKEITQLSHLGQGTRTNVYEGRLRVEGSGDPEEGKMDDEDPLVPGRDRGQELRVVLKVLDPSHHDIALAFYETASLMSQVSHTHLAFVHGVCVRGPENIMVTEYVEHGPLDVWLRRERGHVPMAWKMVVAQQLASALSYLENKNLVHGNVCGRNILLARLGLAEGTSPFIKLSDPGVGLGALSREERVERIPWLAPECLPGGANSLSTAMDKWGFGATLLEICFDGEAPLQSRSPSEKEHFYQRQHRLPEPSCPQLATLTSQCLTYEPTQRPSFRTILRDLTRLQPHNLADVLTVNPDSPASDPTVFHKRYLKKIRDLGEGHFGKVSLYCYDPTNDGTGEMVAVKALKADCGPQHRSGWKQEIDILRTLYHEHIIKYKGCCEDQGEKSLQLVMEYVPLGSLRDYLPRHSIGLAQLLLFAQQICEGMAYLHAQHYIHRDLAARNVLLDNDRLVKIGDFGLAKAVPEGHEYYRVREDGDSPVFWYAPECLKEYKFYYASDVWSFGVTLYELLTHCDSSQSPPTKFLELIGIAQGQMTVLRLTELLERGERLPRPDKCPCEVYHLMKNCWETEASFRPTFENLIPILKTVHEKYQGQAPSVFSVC

In the case of `CNC(=O)c1cnc(Nc2ccc(C(=O)NCCCCCCCCCCC(=O)N[C@H](C(=O)N3C[C@H](O)C[C@H]3C(=O)NCc3ccc(-c4scnc4C)cc3)C(C)(C)C)cn2)cc1Nc1cccc(C(=O)NC)c1OC` [Example 6, 6-((5-((11-(((S)-1-((2S,4R)-4-Hydroxy-2-((4-(4-methylthiazol-5-yl)benzyl)carbamoyl)pyrrolidin-1-yl)-3,3-dimethyl-1-oxobutan-2-yl)amino)-11-oxoundecyl)carbamoyl)pyridin-2-yl)amino)-4-((2-methoxy-3-(methylcarbamoyl)phenyl)amino)-N-methylnicotinamide], the “JAK protein ratio of Jurkat cells after treatment of each test compound: JAK1” value (“JAK protein ratio of Jurkat cells … JAK1” below) at JAK1 was 113.2%. The “JAK protein ratio of Jurkat cells after treatment of each test compound: JAK2” value (from here on “JAK protein ratio of Jurkat cells … JAK2”) at JAK2 is recorded as 139.8%. Further, the JAK3 protein level relative to DMSO at 1 µM on JAK3 is 122%. For the same compound, the “JAK protein ratio of Jurkat cells after treatment of each test compound: Tyk2” value (shortened to “JAK protein ratio of Jurkat cells … Tyk2”) on Tyk2 is recorded as 30.3%.
In the same order, the values of `CNC(=O)c1cnc(Nc2ccc(C(=O)NCCCCCCCCCCCC(=O)N[C@H](C(=O)N3C[C@H](O)C[C@H]3C(=O)NCc3ccc(-c4scnc4C)cc3)C(C)(C)C)cn2)cc1Nc1cccc(C(=O)NC)c1OC` [Example 7, 6-((5-((12-(((S)-1-((2S,4R)-4-Hydroxy-2-((4-(4-methylthiazol-5-yl)benzyl)carbamoyl)pyrrolidin-1-yl)-3,3-dimethyl-1-oxobutan-2-yl)amino)-12-oxododecyl)carbamoyl)pyridin-2-yl)amino)-4-((2-methoxy-3-(methylcarbamoyl)phenyl)amino)-N-methylnicotinamide] are 112.1%, 108.2%, 112% and 47.1%.
Turning to `CNC(=O)c1cnc(Nc2ccc(C(=O)NCCCCCCCCCC(=O)N[C@H](C(=O)N3C[C@@H](O)C[C@H]3C(=O)NCc3ccc(-c4scnc4C)cc3)C(C)(C)C)cn2)cc1Nc1cccc(C(=O)NC)c1OC` [Example 8, 6-((5-((10-(((S)-1-((2S,4S)-4-Hydroxy-2-((4-(4-methylthiazol-5-yl)benzyl)carbamoyl)pyrrolidin-1-yl)-3,3-dimethyl-1-oxobutan-2-yl)amino)-10-oxodecyl)carbamoyl)pyridin-2-yl)amino)-4-((2-methoxy-3-(methylcarbamoyl)phenyl)amino)-N-methylnicotinamide], on JAK1, the “JAK protein ratio of Jurkat cells … JAK1” value came out at 102.6%. In addition, the “JAK protein ratio of Jurkat cells … JAK2” value at JAK2 stood at 122.5%. For the same compound, the JAK3 protein level relative to DMSO at 1 µM on JAK3 is 99%. For the same compound, on Tyk2, the “protein level of Tyk2 (in words)” value is reported as “not reduced” and the “JAK protein ratio of Jurkat cells … Tyk2” value is recorded as 97.0%.
`CNC(=O)c1cccc(Nc2cc(Nc3ccc(C(=O)NCCCCCCCCCC(=O)N[C@H](C(=O)N4C[C@H](O)C[C@H]4C(=O)NCc4ccc(-c5scnc5C)cc4)C(C)(C)C)cn3)ncc2C(N)=O)c1OC` [Example 9, 6-((5-Carbamoyl-4-((2-methoxy-3-(methylcarbamoyl)phenyl)amino)pyridin-2-yl)amino)-N-(10-(((S)-1-((2S,4R)-4-hydroxy-2-((4-(4-methylthiazol-5-yl)benzyl)carbamoyl)pyrrolidin-1-yl)-3,3-dimethyl-1-oxobutan-2-yl)amino)-10-oxodecyl) nicotinamide]: at JAK1, the “protein level of JAK1 (in words)” value is “reduced” and the “JAK protein ratio of Jurkat cells … JAK1” value was 57.6%. Moreover, the “JAK protein ratio of Jurkat cells … JAK2” value at JAK2 was 115.9%. At JAK3, the JAK3 protein level relative to DMSO at 1 µM was 99.3%. Further, the “JAK protein ratio of Jurkat cells … Tyk2” value on Tyk2 is reported as 15.4%.
As to `CNC(=O)c1cnc(Nc2ccc(C(=O)NCCCCCCCCCC(=O)N[C@H](C(=O)N3C[C@H](O)C[C@H]3C(=O)NCc3ccc(-c4scnc4C)cc3)C(C)(C)C)cn2)cc1Nc1cccc(-c2ncn(C)n2)c1OC` [Example 10, 6-((5-((10-(((S)-1-((2S,4R)-4-hydroxy-2-((4-(4-methylthiazol-5-yl)benzyl)carbamoyl)pyrrolidin-1-yl)-3,3-dimethyl-1-oxobutan-2-yl)amino)-10-oxodecyl)carbamoyl)pyridin-2-yl)amino)-4-((2-methoxy-3-(1-methyl-^1H-1,2,4-triazol-3-yl)phenyl)amino)-N-methylnicotinamide], the “JAK protein ratio of Jurkat cells … JAK1” value at JAK1 amounted to 90.5%. At JAK2, the “JAK protein ratio of Jurkat cells … JAK2” value turned out to be 114.1%. On JAK3, the JAK3 protein level relative to DMSO at 1 µM worked out at 111%. The “JAK protein ratio of Jurkat cells … Tyk2” value on Tyk2 is 31.2%.
As to `CNC(=O)c1cnc(Nc2ccc(C(=O)NCCCCCCCCCC(=O)N[C@H](C(=O)N3C[C@H](O)C[C@H]3C(=O)NCc3ccc(-c4scnc4C)cc3)C(C)(C)C)cn2)cc1Nc1cccc(C(=O)NCCO)c1OC` [Example 11, 6-((5-((10-(((S)-1-((2S,4R)-4-hydroxy-2-((4-(4-methylthiazol-5-yl)benzyl)carbamoyl)pyrrolidin-1-yl)-3,3-dimethyl-1-oxobutan-2-yl)amino)-10-oxodecyl)carbamoyl)pyridin-2-yl)amino)-4-((3-((2-hydroxyethyl)carbamoyl)-2-methoxyphenyl)amino)-N-methylnicotinamide], on JAK1, the “JAK protein ratio of Jurkat cells … JAK1” value was determined as 114.4%. For the same compound, on JAK2, the “JAK protein ratio of Jurkat cells … JAK2” value is reported as 132.2%. Besides, the JAK3 protein level relative to DMSO at 1 µM at JAK3 was determined as 103%. Further, the “JAK protein ratio of Jurkat cells … Tyk2” value on Tyk2 is 55.1%.
